Columns and labels:
[1] = target: CYP125 (Mycobacterium tuberculosis, UniProt P9WPP1); type: binding; settings: fragment 1 mM, P450 4-6 µM; Soret shift relative to DMSO (393 nm)
[2] = target: CYP142 (Mycobacterium tuberculosis, UniProt P9WPL5); settings: fragment 1 mM, P450 4-6 µM; relative to DMSO (418.5 nm)
[3] = target: CYP124 (Mycobacterium tuberculosis, UniProt P9WPP3); settings: fragment 1 mM, P450 4-6 µM; relative to DMSO (419 nm)
[4] = target: CYP121 (Mycobacterium tuberculosis, UniProt P9WPP7); settings: fragment 1 mM, P450 4-6 µM; relative to DMSO (417 nm)
Chain of CYP121 (P9WPP7 whole entry, the tested form may be a part): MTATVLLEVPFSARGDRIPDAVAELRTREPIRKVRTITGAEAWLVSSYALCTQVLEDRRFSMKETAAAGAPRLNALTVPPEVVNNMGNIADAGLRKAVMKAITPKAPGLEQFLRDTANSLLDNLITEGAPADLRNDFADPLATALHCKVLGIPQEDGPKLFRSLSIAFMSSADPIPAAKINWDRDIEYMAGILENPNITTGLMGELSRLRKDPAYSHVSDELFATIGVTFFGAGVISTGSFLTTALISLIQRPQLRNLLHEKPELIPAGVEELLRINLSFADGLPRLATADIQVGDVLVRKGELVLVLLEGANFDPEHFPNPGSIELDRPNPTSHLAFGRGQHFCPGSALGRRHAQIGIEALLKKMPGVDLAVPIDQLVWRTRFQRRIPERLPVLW

[5] = target: CYP126 (Mycobacterium tuberculosis, UniProt P9WPN9); settings: fragment 1 mM, P450 4-6 µM; relative to DMSO (418 nm)
Chain of CYP126 (P9WPN9 whole entry, the tested form may be a part): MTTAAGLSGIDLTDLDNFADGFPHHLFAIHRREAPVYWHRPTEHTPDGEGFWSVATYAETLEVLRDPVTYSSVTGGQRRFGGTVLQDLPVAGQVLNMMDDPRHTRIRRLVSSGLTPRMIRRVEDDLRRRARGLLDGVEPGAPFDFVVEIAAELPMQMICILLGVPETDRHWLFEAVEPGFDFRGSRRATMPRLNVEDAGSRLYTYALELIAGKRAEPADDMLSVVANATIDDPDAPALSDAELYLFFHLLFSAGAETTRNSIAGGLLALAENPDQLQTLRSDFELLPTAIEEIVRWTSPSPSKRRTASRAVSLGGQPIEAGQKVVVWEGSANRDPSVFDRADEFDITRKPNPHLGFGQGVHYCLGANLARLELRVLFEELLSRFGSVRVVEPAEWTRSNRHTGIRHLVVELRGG

[6] = target: CYP143 (Mycobacterium tuberculosis, UniProt P9WPL3); settings: fragment 1 mM, P450 4-6 µM; relative to DMSO (416 nm)
Chain of CYP143 (P9WPL3 whole entry, the tested form may be a part): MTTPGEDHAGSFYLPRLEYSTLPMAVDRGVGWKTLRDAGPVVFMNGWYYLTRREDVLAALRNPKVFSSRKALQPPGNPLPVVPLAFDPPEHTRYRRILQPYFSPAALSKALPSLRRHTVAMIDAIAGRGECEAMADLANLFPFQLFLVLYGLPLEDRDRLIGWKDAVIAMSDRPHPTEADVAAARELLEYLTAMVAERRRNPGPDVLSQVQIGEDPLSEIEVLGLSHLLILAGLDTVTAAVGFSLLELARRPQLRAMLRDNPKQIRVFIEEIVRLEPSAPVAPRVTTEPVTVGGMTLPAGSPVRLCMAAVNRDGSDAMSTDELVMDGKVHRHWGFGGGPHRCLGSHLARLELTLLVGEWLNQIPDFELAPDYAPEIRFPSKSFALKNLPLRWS

[7] = target: CYP144 (Mycobacterium tuberculosis, UniProt P9WPL1); settings: fragment 1 mM, P450 4-6 µM; relative to DMSO (421 nm)
Chain of CYP144 (P9WPL1 whole entry, the tested form may be a part): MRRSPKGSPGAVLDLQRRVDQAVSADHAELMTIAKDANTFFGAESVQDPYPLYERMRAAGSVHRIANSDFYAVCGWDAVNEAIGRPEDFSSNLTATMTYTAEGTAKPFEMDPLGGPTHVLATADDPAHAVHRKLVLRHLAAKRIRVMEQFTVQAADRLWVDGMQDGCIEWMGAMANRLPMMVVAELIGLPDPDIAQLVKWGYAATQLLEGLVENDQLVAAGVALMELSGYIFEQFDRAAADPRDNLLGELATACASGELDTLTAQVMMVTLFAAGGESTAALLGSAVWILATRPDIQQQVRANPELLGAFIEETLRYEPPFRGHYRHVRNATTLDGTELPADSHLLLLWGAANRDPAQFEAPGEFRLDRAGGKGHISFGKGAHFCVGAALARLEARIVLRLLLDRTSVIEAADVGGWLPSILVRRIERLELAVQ

Chain of CYP124 (P9WPP3 whole entry, the tested form may be a part): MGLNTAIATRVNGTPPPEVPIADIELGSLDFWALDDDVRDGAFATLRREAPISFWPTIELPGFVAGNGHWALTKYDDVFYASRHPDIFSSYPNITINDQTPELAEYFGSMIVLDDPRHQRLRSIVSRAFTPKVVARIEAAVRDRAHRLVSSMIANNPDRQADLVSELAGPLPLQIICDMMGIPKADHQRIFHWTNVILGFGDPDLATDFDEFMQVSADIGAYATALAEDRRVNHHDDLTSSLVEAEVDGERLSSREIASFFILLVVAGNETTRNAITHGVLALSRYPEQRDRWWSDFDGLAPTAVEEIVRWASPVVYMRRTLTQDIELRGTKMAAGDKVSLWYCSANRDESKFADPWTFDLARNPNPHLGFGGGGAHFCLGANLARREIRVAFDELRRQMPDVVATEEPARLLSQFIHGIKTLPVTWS
Chain of CYP125 (P9WPP1 whole entry, the tested form may be a part): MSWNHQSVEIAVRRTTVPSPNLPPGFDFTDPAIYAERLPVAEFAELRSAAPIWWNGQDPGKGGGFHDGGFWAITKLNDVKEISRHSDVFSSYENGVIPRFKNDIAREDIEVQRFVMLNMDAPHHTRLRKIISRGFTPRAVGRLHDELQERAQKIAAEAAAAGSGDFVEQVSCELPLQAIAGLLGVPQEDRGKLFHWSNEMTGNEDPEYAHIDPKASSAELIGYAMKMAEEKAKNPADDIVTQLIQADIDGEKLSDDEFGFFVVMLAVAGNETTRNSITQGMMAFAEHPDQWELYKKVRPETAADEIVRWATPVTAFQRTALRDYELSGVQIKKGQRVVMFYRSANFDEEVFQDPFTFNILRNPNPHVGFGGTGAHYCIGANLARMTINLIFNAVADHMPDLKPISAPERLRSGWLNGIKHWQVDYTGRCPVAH
Chain of CYP142 (P9WPL5 whole entry, the tested form may be a part): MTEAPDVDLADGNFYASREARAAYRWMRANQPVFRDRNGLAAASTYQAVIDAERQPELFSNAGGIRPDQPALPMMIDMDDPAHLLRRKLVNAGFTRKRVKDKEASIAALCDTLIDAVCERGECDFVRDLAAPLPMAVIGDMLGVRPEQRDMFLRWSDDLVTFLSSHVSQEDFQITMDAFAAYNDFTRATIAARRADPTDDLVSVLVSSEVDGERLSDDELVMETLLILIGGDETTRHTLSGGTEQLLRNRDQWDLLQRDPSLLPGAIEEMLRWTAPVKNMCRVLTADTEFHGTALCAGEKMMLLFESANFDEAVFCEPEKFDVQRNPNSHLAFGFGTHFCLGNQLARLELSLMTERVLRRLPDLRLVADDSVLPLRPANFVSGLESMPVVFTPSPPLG

Compound | Δλmax (nm) CYP125, fragment screen [1] [nm] | Δλmax (nm) CYP142, fragment screen [2] [nm] | Δλmax (nm) CYP124, fragment screen [3] [nm] | Δλmax (nm) CYP121, fragment screen [4] [nm] | Δλmax (nm) CYP126, fragment screen [5] [nm] | Δλmax (nm) CYP143, fragment screen [6] [nm] | Δλmax (nm) CYP144, fragment screen [7] [nm]
Cc1cc(C)n(-c2ccc(N)cc2)n1 [compound 16] | 0 | 0 | 0 | -1 | 0 | 0.5 | 0
O=C(O)[C@@H]1Cc2ccccc2CN1 [compound 79] | -2 | 0 | 0 | 1 | 0 | 0 | 0
OB(O)c1ccccc1 [compound 33] | 0 | 0 | 0 | 0 | 0 | 4 | 0
OCc1ccc(-c2ccncc2)cc1 [compound 8] | 25 | 0 | 1 | 1 | 3 | 1 | 0
Cc1n[nH]cc1Br [compound 38] | 0 | 1.5 | 0 | 0 | 0 | 0 | 0
c1ccc(Cc2cccnc2)cc1 [compound 20] | 28 | 3 | 1 | 2 | 1 | 2 | 0
c1ccc2c(c1)CCNC2 [compound 39] | 0 | 1.5 | 2 | 0 | 0 | 1 | 0
c1ccc(N2CCOCC2)nc1 [compound 63] | 0 | 0 | 0 | 0 | 0 | 1 | 0
OCc1ccc(Br)cn1 [compound 29] | 0 | 0 | 0 | 0 | 0 | 0.5 | 0
CC(C)c1cc(C(=O)O)[nH]n1 [compound 46] | 0 | 0 | 0 | 0 | 0 | -0.5 | 0
OCc1ccc(Cn2cncn2)cc1 [compound 69] | 0 | 0 | 0 | 0 | 0 | 0 | 0
c1ccc(-c2cc[nH]n2)cc1 [compound 35] | -2 | 0 | -1 | 0 | 0 | 1 | 0
Cc1cc(O)nnc1O [compound 24] | 0 | 0 | 0 | -1 | 0 | 0 | 0
C#Cc1cccnc1 [compound 75] | 0 | 0 | 0 | 0 | 0 | 0 | 0
N#Cc1ccncc1 [compound 41] | 0 | 0 | 0 | 0 | 0 | -0.5 | 0
Nc1ccncc1 [compound 47] | 0 | 1.5 | 0 | 0 | 0 | 0 | 0
c1ccc(-c2ncc[nH]2)cc1 [compound 4] | 0 | 0 | 0 | 0 | 0 | 0 | 0
Cn1nc(-c2ccccc2)cc1N [compound 11] | 0 | 0 | 0 | 0 | 0 | -0.5 | 0
OCc1nccn1Cc1ccccc1 [compound 10] | 0 | 3 | 1 | 0 | 0 | 1 | 0
N#Cc1cccc(-n2ccnc2)c1 [compound 71] | 0 | 3 | 1 | 0 | 0 | 2.5 | 0
Nc1cc(-c2ccc(Cl)cc2)n[nH]1 [compound 12] | -2 | 0 | -1 | 2 | 1 | 0 | 0
Clc1ncccc1Br [compound 57] | 0 | 0 | 0 | -1 | 0 | 0.5 | 0
O=[N+]([O-])c1ccc(Br)c2ccncc12 [compound 59] | 0 | 0 | 1 | – | 0 | – | 0
Nn1cccc1C(=O)O [compound 62] | – | 0 | 0 | – | 0 | 4 | 0
Nc1cccnc1N [compound 66] | – | 0 | 0 | – | 0 | 0 | 0
Nc1cccnc1O [compound 45] | 0 | 0 | 0 | – | 0 | 0 | 0
COc1ncccc1C(=O)O [compound 65] | – | 0 | 0 | 0 | 0 | 1 | 0
Clc1cccnc1Cl [compound 61] | – | 0 | 0 | 0 | 0 | 0 | 0
Clc1nccc2ccc(Br)cc12 [compound 37] | 0 | 0 | 0 | -3 | 0 | – | 0
